# Reference: patent US11718642B2, “Compositions and methods for treating CNS disorders” (Sage Therapeutics, Inc., priority 2018, dated 2023)
# Biological target: GABAA receptor
# Experiment: Steroid inhibition of [35S]-TBPS binding, rat brain cortical membranes
# Details: Table I-1, 3 nM [35S]-TBPS, in the presence of 5 mM GABA
# Protocol: [^35S]-t-Butylbicyclophosphorothionate (TBPS) binding assays using rat brain cortical […] membranes in the presence of 5 mM GABA has been described (Gee et al, J. Pharmacol. Exp. Ther. 1987, 241, 346-353; Hawkinson et al, Mol. Pharmacol. 1994, 46, 977-985; Lewin, A. H et al., Mol. Pharmacol. 1989, 35, 189-194).
# Briefly, cortices are rapidly removed following decapitation of carbon dioxide-anesthetized Sprague-Dawley rats (200-250 g). The cortices are homogenized in 10 volumes of ice-cold 0.32 M sucrose using a glass/teflon homogenizer and centrifuged at 1500×g for 10 min at 4° C. The resultant supernatants are centrifuged at 10,000×g for 20 min at 4° C. to obtain the P2 pellets. The P2 pellets are resuspended in 200 mM NaC/50 mM Na—K phosphate pH 7.4 buffer and centrifuged at 10,000×g for 10 min at 4° C. This washing procedure is repeated twice and the pellets are resuspended in 10 volumes of buffer. Aliquots ([…]) of the membrane suspensions are incubated with 3 nM [^35S]-TBPS and […] aliquots of test drug dissolved in dimethyl sulfoxide (DMSO) (final 0.5%) in the presence of 5 mM GABA. The incubation is brought to a final volume of 1.0 mL with buffer. Nonspecific binding is determined in the presence of […] unlabeled TBPS and ranged from 15 to 25%. Following a 90 min incubation at room temp, the assays are terminated by filtration through glass fiber filters (Schleicher and Schuell No. 32) using a cell harvester (Brandel) and rinsed three times with ice-cold buffer. Filter bound radioactivity is measured by liquid scintillation spectrometry. Non-linear curve fitting of the overall data for each drug averaged for each concentration is done using Prism (GraphPad). […] The concentration of test compound producing 50% inhibition (IC50) of specific binding and the maximal extent of inhibition (Imax) are determined for the individual experiments with the same model used for the overall data and then the means±SEM.s of the individual experiments are calculated.
# Various compounds are or can be screened to determine their potential as modulators of [35S]-TBPS binding in vitro. These assays are or can be performed in accordance with the above.
row,Structure (SMILES),IC50
1,"CC(=O)[C@H]1CC[C@H]2[C@@H]3COC4C[C@](C)(O)CC[C@@H]4[C@H]3CC[C@]12C (stereo in doubt) [I-A15, 1-((1S,3aS,3bR,5aS,7R,9aR,9bS,11aS)-7-hydroxy-7,11a-dimethylhexadecahydroindeno[4,5-c]chromen-1-yl)ethan-1-one]",1 to 10 µM
2,"C[C@@]1(O)CC[C@@H]2[C@H]3CC[C@]4(C)[C@@H](C(=O)Cn5cc(C#N)cn5)CC[C@H]4[C@@H]3CO[C@@H]2C1 [I-A17, 1-(2-((1S,3aS,3bR,5aS,7R,9aR,9bS,1aS)-7-hydroxy-7,11a-dimethylhexadecahydroindeno[4,5-c]chromen-1-yl)-2-oxoethyl)-1H-pyrazole-4-carbonitrile]",1 to 10 µM

# Same assay, conditions: Table II-2, 3 nM [35S]-TBPS, in the presence of 5 mM GABA
row,Structure (SMILES),IC50
1,"CC(=O)[C@H]1OC[C@H]2[C@@H]3CC[C@@H]4C[C@](C)(O)CC[C@@H]4[C@H]3CC[C@]12C [II-A11b, 1-((1S,3aS,3bR,5aR,7R,9aS,9bR,11aS)-7-hydroxy-7,11a-dimethylhexadecahydrophenanthro[1,2-c]furan-1-yl)ethan-1-one]",≥ 10 µM
2,"C[C@@]1(O)CC[C@H]2[C@H](CC[C@@H]3[C@@H]2CC[C@]2(C)[C@@H](C(=O)Cn4cc(C#N)cn4)OC[C@@H]32)C1 [II-A13b, 1-(2-((1S,3aS,3bR,5aR,7R,9aS,9bR,11aS)-7-hydroxy-7,11a-dimethylhexadecahydrophenanthro[1,2-c]furan-1-yl)-2-oxoethyl)-1H-pyrazole-4-carbonitrile]",1 to 10 µM
3,"CC(=O)[C@H]1COC[C@H]2[C@@H]3CC[C@@H]4C[C@](C)(O)CC[C@@H]4[C@H]3CC[C@]12C [II-B12, 1-((1R,4aS,4bR,6aR,8R,10aS,10bR,12aS)-8-hydroxy-8,12a-dimethylhexadecahydro-2H-naphtho[1,2-h]isochromen-1-yl)ethan-1-one]",0.1 to 1 µM
4,"C[C@@]1(O)CC[C@H]2[C@H](CC[C@@H]3[C@@H]2CC[C@]2(C)[C@@H](C(=O)Cn4cc(C#N)cn4)COC[C@@H]32)C1 [II-B14, 1-(2-((1R,4aS,4bR,6aR,8R,10aS,10bR,12aS)-8-hydroxy-8,12a-dimethylhexadecahydro-2H-naphtho[1,2-h]isochromen-1-yl)-2-oxoethyl)-1H-pyrazole-4-carbonitrile]",0.1 to 1 µM
